Tests used:
DPP4 = target: T1, DPP4 (Homo sapiens, UniProt P27487); assay: DPP4 activity, fluorometric assay with AMC substrate; format: biochemical; conditions: fluorometric assay using AMC substrates
T1 construct: purchased R&D Systems 9168-SE
Description: (§1) Recombinant human PREP (hPREP) (catalog no. 4308-SE), hDPP2/7 (catalog no. 3438-SE), hDPP9 (catalog no. 5419-SE), hFAP (catalog no. 3715-SE), and hDPP4 (catalog no. 9168-SE) proteins were from R&D Systems (Minneapolis, MN). Human FGF21 (catalog no. CRF159C) was from Cell Science (Newburyport, MA).
(§2) FAP enzyme activities were assayed in 20 mM Tris/HCl, 0.1 M NaCl, 1 mM EDTA (pH 8.0) in the presence of 40 μM Suc-Gly-Pro-Leu-Gly-Pro-AMC (#I-1350.0100, BACHEM, Bubendorf, Switzerland) and hFAP in a total volume of 100 µL. […] The inhibitor concentrations ranged from 100 μM to 0.03 nM, and its IC50 values were computed with commercially available curve-fitting programs such as the SigmaPlot. Other protease activities were determined in a similar manner.

PREP = target: T2, PREP (Homo sapiens, UniProt P48147); assay: PREP activity, fluorometric assay with AMC substrate; format: biochemical
T2 construct: purchased R&D Systems 4308-SE
T2 sequence (P48147 whole entry): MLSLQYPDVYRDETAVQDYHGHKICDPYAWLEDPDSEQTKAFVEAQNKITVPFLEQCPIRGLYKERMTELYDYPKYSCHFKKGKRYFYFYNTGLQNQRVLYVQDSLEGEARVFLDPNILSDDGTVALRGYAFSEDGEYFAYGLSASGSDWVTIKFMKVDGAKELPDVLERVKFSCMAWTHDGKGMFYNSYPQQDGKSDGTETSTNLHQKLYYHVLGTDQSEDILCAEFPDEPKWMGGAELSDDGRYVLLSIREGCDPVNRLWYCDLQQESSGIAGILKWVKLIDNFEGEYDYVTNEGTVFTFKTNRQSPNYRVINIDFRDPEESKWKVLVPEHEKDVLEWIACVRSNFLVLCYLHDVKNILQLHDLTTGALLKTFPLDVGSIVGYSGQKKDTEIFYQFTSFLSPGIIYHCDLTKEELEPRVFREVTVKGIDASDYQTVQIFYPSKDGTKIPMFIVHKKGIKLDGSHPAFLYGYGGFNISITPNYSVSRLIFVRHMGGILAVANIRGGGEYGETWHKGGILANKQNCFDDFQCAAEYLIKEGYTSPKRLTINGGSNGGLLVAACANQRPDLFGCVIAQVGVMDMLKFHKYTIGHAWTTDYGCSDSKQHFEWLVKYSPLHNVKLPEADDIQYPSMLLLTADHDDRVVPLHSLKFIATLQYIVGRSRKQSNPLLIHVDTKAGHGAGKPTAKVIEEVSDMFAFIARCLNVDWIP
Description: as §1, §2

[1] = Plasma protein binding, human; format: in vitro ADME; conditions: human (H), read-out: Plasma protein binding (% bound) (converted)
Description: (§3) Protein binding was conducted as described. Compound solutions prepared in DMSO were diluted in phosphate buffer (final concentration: 1 µg/mL), and added into human plasma (total volume: 1 mL). Aliquots were then transferred in duplicate to: (i) a final concentration plate that was immediately quenched with 23.6 ng/mL internal standard (IS, chlorpropamide) in ACN, (ii) a degradation control, which was placed in a water bath at 37℃ for 4 h, and (iii) ultracentrifuge tubes, which were centrifuged for 5 min at 4℃ (14,000 rpm). All reactions were stopped by the addition of ACN containing 23.6 ng/mL chlorpropamide. The samples were subjected to LC–MS/MS analysis.

[2] = Pharmacokinetic study in rats; format: in vivo; conditions: male, Sprague-Dawley, plasma, rat, oral 10 mg/kg
From the text: Six male Sprague–Dawley rats (7-week-old, 240–250 g) were obtained from Orient Bio INC. (Seongnam, Gyeonggi-do, Korea) and maintained at 22℃ on a 12-h light/12-h dark cycle with free access to water. All animals were maintained under such conditions for a minimum of 2 weeks prior to initiation of the studies. […] Plasma sample preparations and analysis were the same as described in mice study.

serum FAP = target: T3, serum FAP (Homo sapiens, UniProt Q12884); assay: IC50 on serum FAP, humans; format: biochemical
T3 construct: also found in human serum as a soluble form lacking the transmembrane domain; from tissue; host or cells: human serum
T3 sequence (Q12884 24-760 limits assumed): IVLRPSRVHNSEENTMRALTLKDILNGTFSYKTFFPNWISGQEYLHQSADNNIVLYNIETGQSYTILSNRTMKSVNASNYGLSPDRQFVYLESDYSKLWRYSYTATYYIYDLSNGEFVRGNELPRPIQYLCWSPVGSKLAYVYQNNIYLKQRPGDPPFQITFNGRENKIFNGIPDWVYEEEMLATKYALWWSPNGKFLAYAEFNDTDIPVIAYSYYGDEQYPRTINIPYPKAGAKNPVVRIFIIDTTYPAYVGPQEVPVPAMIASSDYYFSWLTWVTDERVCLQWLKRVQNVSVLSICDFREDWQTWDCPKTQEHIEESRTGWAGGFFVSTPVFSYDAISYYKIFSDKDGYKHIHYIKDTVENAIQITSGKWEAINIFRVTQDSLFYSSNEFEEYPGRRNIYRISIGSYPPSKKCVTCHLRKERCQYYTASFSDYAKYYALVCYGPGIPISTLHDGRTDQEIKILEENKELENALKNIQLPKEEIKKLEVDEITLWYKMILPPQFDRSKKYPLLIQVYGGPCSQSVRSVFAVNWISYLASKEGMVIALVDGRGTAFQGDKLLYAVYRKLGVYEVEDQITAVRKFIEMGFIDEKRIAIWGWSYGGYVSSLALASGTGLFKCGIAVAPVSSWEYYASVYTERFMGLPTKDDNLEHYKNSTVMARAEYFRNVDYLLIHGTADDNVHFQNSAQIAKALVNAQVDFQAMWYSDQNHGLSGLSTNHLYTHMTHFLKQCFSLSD

[3] = Pharmacokinetic study in mice; format: in vivo, C57BL/6J mice; conditions: mouse, plasma
Description: Mice were administered with BR103354 either p.o. […] (2 mg/kg). […] These samples were then centrifuged at 13,000 rpm for 10 min to obtain plasma. […] Samples were analyzed on an API 4500 Qtrap LC‐MS/MS system (Applied Biosystems/MDS Sciex, Toronto, Canada) coupled with Agilent 1200 HPLC (Agilent Technologies, Santa Clara, CA). Plasma concentration–time data were analyzed by non-compartmental method using the nonlinear least-squares regression program WinNonlin (Pharsight, Mountain View, CA).

[4] = Plasma protein binding, rat; format: in vitro ADME; conditions: rat (R), read-out: Plasma protein binding (% bound) (converted)
Description: as §3

[5] = Microsomal stability, rat; format: in vitro ADME; conditions: liver microsomes, pH 7.4, rat (R), 0.5 mg/mL, NADPH, read-out: Microsomal stability (% remaining at 60 min)
Description: (§4) Aliquots were then transferred in duplicate to: (i) a final concentration plate that was immediately quenched with 23.6 ng/mL internal standard (IS, chlorpropamide) in acetonitrile (ACN) or (ii) tubes, which were centrifuged for 5 min at 4℃ (14,000 rpm). The samples were subjected to LC–MS/MS analysis on an AB Sciex 4000 Q Trap hybrid triple quadrupole linear ion-trap MS (AB Sciex, Framingham, MA) coupled to an Agilent 1200 HPLC (Agilent Tech. Santa Clara, CA) with a reverse-phase Kinetex XB-C18 column (2.1 × 100 mm, 2.6 µm; Phenomenex). Mobile phases were comprised of 0.1% formic acid (FA) in water (A) and 0.1 FA in ACN (B). Data analysis was performed using […] (Ver. 1.6.1).

in vivo = conditions: cynomolgus monkey, plasma, inhaled or intranasal, 50 mg/kg
Description: Intact FGF21 levels in plasma were measured by ELISA.
FAP activity and intact FGF21 concentrations were measured as described above.

hERG = target: T4, hERG (Homo sapiens, UniProt Q12809); assay: hERG binding assay based on fluorescence polarization
T4 construct: purchased Invitrogen; host or cells: membrane preparation of the kit
T4 sequence (Q12809 whole entry): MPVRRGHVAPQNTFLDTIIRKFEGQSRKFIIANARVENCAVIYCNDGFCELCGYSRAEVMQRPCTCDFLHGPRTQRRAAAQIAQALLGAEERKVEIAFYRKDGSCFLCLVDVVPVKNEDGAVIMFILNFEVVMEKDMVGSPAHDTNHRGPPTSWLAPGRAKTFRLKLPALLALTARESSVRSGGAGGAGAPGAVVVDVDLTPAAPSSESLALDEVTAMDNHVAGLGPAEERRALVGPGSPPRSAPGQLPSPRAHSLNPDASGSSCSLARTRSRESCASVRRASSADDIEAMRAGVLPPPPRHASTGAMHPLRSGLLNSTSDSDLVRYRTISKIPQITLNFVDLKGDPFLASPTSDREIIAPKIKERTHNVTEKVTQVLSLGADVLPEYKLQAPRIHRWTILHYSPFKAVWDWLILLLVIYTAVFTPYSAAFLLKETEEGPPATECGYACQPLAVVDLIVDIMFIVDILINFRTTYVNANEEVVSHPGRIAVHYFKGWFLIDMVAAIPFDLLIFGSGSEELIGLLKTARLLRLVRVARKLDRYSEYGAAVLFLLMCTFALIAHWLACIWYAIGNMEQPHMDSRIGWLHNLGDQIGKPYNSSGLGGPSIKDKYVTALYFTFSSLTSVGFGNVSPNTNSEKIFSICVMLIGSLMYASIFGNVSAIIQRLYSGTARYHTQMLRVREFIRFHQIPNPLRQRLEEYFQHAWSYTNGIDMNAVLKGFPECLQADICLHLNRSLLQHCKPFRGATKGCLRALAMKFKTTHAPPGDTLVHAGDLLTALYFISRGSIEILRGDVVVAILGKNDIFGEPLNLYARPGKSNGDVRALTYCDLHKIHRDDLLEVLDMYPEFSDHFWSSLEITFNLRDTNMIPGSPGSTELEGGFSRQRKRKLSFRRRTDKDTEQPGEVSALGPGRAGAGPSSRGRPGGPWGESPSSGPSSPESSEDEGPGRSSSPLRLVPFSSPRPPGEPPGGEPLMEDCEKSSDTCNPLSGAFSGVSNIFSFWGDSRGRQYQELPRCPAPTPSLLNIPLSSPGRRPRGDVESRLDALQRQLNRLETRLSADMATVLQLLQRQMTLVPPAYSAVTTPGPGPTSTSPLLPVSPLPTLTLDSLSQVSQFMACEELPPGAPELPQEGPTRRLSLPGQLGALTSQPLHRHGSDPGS
Description: Predictor hERG Assay test kits were obtained from Invitrogen (Carlsbad, CA). The binding assay was carried out according to the manufacturer’s instructions. […] Working Tracer solution (5 μL) was then added and the plate was allowed to incubate at room temperature for at least 1 h, and then fluorescence polarization was measured using the Synergy 4 Hybrid Microplate Reader from BioTek Instruments (Winooski, VT) with 530/25 excitation and 590/35 emission filters along with a 570 nm cut off dichroic mirror. Polarization values were calculated automatically using Gen Data Analysis Software (BioTek Instruments). The above protocol is described in detail in the Invitrogen’s application note.

[6] = Microsomal stability, monkey; format: in vitro ADME; conditions: liver microsomes, pH 7.4, monkey (Mk), 0.5 mg/mL, NADPH, read-out: Microsomal stability (% remaining at 60 min)
Description: as §4

DPP9 = target: T5, DPP9 (Homo sapiens, UniProt Q86TI2); assay: DPP9 activity, fluorometric assay with AMC substrate; format: biochemical; conditions: fluorometric assay using AMC substrates
T5 construct: purchased R&D Systems 5419-SE
T5 sequence (Q86TI2 whole entry): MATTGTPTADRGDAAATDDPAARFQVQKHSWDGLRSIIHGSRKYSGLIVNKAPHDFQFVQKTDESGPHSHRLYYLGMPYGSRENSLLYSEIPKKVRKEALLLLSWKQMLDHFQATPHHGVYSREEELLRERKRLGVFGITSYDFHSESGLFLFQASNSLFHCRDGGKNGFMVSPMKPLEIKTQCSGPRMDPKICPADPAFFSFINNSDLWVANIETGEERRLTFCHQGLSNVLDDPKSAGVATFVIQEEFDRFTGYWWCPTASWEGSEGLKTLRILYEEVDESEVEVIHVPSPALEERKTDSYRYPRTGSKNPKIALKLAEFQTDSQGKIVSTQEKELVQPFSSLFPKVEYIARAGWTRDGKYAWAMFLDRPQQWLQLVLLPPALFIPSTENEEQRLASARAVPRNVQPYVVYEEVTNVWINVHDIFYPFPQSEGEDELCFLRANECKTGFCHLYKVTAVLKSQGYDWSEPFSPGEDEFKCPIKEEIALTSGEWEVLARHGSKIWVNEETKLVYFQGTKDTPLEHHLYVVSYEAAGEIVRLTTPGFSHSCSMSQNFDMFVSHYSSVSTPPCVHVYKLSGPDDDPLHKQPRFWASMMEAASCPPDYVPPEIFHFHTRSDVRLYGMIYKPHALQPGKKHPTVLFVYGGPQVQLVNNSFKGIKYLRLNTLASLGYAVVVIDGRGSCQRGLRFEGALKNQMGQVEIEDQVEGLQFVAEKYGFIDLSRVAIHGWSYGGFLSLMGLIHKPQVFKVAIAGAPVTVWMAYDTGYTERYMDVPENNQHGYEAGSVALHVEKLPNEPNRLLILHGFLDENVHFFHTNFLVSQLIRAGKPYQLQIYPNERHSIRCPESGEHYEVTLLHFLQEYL
Description: as §1, §2

[7] = male, C57BL/6J, po, p.o. 1 mg/kg
[8] = male, C57BL/6J, po, p.o. 5 mg/kg
[9] = male, C57BL/6J, po, p.o. 10 mg/kg
[10] = male, C57BL/6J, po, p.o. 100 mg/kg
[11] = male, C57BL/6J, po, p.o. 200 mg/kg

T1 sequence (P27487 whole entry): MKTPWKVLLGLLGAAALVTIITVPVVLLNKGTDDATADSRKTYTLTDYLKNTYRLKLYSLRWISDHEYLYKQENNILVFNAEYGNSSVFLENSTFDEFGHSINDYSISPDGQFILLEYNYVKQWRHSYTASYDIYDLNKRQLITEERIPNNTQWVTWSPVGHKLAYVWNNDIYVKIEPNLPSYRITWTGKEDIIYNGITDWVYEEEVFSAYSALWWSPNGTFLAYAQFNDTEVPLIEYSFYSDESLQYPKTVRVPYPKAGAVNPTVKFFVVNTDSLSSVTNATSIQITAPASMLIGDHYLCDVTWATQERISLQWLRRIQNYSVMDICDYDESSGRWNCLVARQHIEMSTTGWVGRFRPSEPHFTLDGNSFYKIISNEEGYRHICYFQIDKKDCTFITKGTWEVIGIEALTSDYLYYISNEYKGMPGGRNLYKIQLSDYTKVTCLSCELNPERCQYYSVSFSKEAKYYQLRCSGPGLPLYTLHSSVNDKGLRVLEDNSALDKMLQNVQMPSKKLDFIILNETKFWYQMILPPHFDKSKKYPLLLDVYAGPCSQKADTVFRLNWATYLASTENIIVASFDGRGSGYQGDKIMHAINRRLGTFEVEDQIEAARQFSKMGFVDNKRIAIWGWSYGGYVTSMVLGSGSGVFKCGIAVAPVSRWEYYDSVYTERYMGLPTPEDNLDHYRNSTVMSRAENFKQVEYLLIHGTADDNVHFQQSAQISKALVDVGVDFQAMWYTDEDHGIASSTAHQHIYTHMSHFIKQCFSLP

## N#Cc1ccc(Cc2nc(C(=O)NCC(=O)N3CC(F)(F)C[C@H]3C#N)cs2)cc1 [BR103354, (S)-N-(2-(2-cyano-4,4-difluoropyrrolidin-1-yl)-2-oxoethyl)-2-(4-cyanobenzyl)thiazole-4-carboxamide]
DPP4
  IC50: > 100000 nM
PREP
  IC50: 387 nM
[1]
  fraction unbound at 1 µg/mL: 0.33
[2]
  Cmax: 4400 ng/mL
  Tmax: 1.1 h
  half-life: 210 min
[2]; read-out: AUC(0–6 h)
  AUC(0-t): 19700 ng·h/mL
Serum FAP
  IC50: 29 nM
[3]; male, C57BL/6J, po, mice, all doses, read-out: half-life (T1/2), range over doses
  half-life: 72 to 240 min
[3]; [7]
  AUC(0-t): 3700 ng·h/mL
  Cmax: 2300 ng/mL
  Tmax: 30 min
[3]; male, C57BL/6J, po, p.o. 1 mg/kg, read-out: T1/2 (converted)
  half-life: 72 min
[3]; [8]
  AUC(0-t): 10800 ng·h/mL
  Cmax: 7200 ng/mL
  Tmax: 30 min
[3]; male, C57BL/6J, po, p.o. 5 mg/kg, read-out: T1/2 (converted)
  half-life: 66 min
[3]; [9]
  AUC(0-t): 41100 ng·h/mL
  Cmax: 19200 ng/mL
  Tmax: 30 min
[3]; male, C57BL/6J, po, p.o. 10 mg/kg, read-out: T1/2 (converted)
  half-life: 72 min
[3]; [10]
  AUC(0-t): 17000 ng·h/mL
  Cmax: 66000 ng/mL
  Tmax: 60 min
[3]; male, C57BL/6J, po, p.o. 100 mg/kg, read-out: T1/2 (converted)
  half-life: 240 min
[3]; [11]
  AUC(0-t): 29200 ng·h/mL
  Cmax: 122000 ng/mL
  Tmax: 60 min
[3]; male, C57BL/6J, po, p.o. 200 mg/kg, read-out: T1/2 (converted)
  half-life: 228 min
[3]; male, C57BL/6J, oral, i.v. 2 mg/kg
  bioavailability: 48.4%
[3]; summary in discussion, species and dose not stated
  Tmax: 60 min
[3]; summary in discussion, species and dose not stated, read-out: T1/2 (converted)
  half-life: 72 min
[4]
  fraction unbound at 1 µg/mL: 0.4
[5]
  remaining at 1 h, 1 µM: 87%
In vivo
  Tmax: 3 h
hERG
  IC50: > 788 µM
[6]
  remaining at 1 h, 1 µM: 81%
DPP9
  IC50: 5040 nM

Reference: paper PMC7718273 (Scientific Reports, 2020)
